Assay results reported in article PMC6900016, “Synthesis of Indomorphan Pseudo‐Natural Product Inhibitors of Glucose Transporters GLUT‐1 and ‐3” (Angewandte Chemie (International Ed. in English), 2019).

Experiments:
GLUT-3 = target: T1, GLUT-3 (Homo sapiens, UniProt P11169); test: CETSA/thermal proteome profiling in SW480 lysate (ΔTm […] °C by MS, […] °C by immunoblot, […]); 2DG uptake IC50 in DLD-1 GLUT1(-/-) cells; shift on GLUT-3 overexpression in CHO; type: cell-based
T1 construct: gene SLC2A3

A431 = test: cells; set-up: Cell growth inhibition, sulforhodamine B total protein staining; conditions: Homo sapiens, A-431; 72 h growth; read-out: Cell growth inhibition IC50/µM
Experimental: (§1) Cell panel profiling A panel of 94 cell lines was exposed to Glupin for 72 h to assess the influence on cell growth (Oncolead, Germany). Cell growth was determined using sulforhodamine B assay. Measurements were performed using a total protein staining protocol. Briefly, after treatement cells were fixed addition of 10% TCA (for adherent growing cells) or 50% TCA (for semi-adherent growing cells or cells growing in suspension). After an incubation at 4°C for 1 h, plates were washed twice with 400 μl of deionized water and dried. Cells were then stained with 100 μl of 0.04% wt/v sulforhodamine B. Plates were incubated at room temperature for at least 30 min and washed six times with 1% acetic acid to remove unbound stain. […] This effect was much stronger at a physiological glucose concentration (5 mM; Figure 5 b,c). […] IC50 values lower than 300 nM were obtained for more than 20 cell lines, whereas 24 cell lines were not affected by the compound, among them the peripheral blood mononuclear control cells (PBMCs). Sensitivity to Glupin was detected across various tissue types (Table S6).

HS729 = test: cells; set-up: Cell growth inhibition, sulforhodamine B total protein staining; conditions: 72 h growth; read-out: Cell growth inhibition IC50/µM
Experimental: as §1

HT1080 = test: cells; set-up: Cell growth inhibition, sulforhodamine B total protein staining; conditions: Homo sapiens, HT-1080; 72 h growth; read-out: Cell growth inhibition IC50/µM
Experimental: as §1

LOVO = test: cells; set-up: Cell growth inhibition, sulforhodamine B total protein staining; conditions: Homo sapiens, LoVo; 72 h growth; read-out: Cell growth inhibition IC50/µM
Experimental: as §1

SW620 = test: cells; set-up: Cell growth inhibition, sulforhodamine B total protein staining; conditions: Homo sapiens, SW-620; 72 h growth; read-out: Cell growth inhibition IC50/µM
Experimental: as §1

CHO [1] = test: cells; set-up: 2-deoxyglucose uptake inhibition, resazurin/diaphorase, mock-transfected CHO cells; conditions: Cricetulus griseus, 0.5 h, empty vector
Experimental: Resazurin-based 2DG uptake assay (low throughput) The 2DG uptake assay was performed by the Yamamoto et al. procedure.[6] 40000 cells/well were seeded in black CellBIND 96-well plates with clear bottom (Corning) and allowed to attach overnight. Cells were washed three times with KRB buffer (20 mM Hepes, 5 mM KH2PO4, 1 mM MgCl2, 1 mM CaCl2, 136 mM NaCl, 4.7 mM KCl, pH 7.4) containing 0.1% BSA and then incubated with the compounds or vehicle control and 1 mM 2DG for 30 min as described earlier. After washing three times with KRB buffer, the plates were sealed with adhesive aluminum foil and cells were lysed with 60 µL 1% CHAPS in 0.06 M HCl. Subsequently, plates were heated using microplate heater for 15 min at 65°C. After cooling down to room temperature, 20 µL 0.5 M Tris were added to neutralize the acid, before 80 µL of detection enzyme mixture were added. The detection enzyme solution contained 25 µM resazurin sodium salt (Acros), 6 U/mL glucose-6-phosphate dehydrogenase (G8404; Sigma Aldrich), 0.2 U/mL diaphorase from Chlostridium kluyveri (D5540; Sigma Aldrich) and 0.1mM NADP+ (Applichem) in 0.125 mM Tris, pH 8.4 with 0.1% BSA. After incubation for 2 h at room temperature, fluorescence intensity was measured at ex/em 530/590 nm using a Tecan M200 plate reader. Data were normalized to the respective DMSO Transient overexpression of GLUT-1-4 in CHO cells and 2DG assay[7] […]

CHO [2] = test system: T2, CHO; test: cells; set-up: 2DG uptake in transfected CHO cells, resazurin/diaphorase fluorescence; conditions: Cricetulus griseus, 0.5 h
T2 construct: transiently transfected with plasmid
Experimental: Transient overexpression of GLUT-1-4 in CHO cells and 2DG assay[7] 1x10^6 CHO cells were seeded 10 cm cell culture plates. After overnight incubation, cells were transfected with the different using Lipofectamine 3000 according to the supplier's instructions. Briefly, DNA-lipid SUPPORTING INFORMATION 264 complexes (100 µg plasmid DNA, DNA:lipid ratio 1:2) were prepared in OptiMEM and then added to the cells. In the case of GLUT-4-transfected cells, Insulin (100 µg/mL) was added to the transfection medium. After incubation for 48 h cells were either reseeded (40,000 cell/well) in 96-well plates for monitoring glucose uptake or cells were directly lysed and protein expression was subsequently analysed by means of immunoblotting. In the case of GLUT-4 transfected cells, Insulin (100 µg/mL) was added to the culture medium medium. The 2DG assay was performed as described above (low throughput resazurin-based assay). In the case of GLUT-4 transfected cells, Insulin (100 µg/mL) was added to the buffer. Resazurin-based 2DG uptake assay (low throughput) The 2DG uptake assay was performed by the Yamamoto et al. procedure.[6] 40000 cells/well were seeded in black CellBIND 96-well plates with clear bottom (Corning) and allowed to attach overnight. Cells were washed three times with KRB buffer (20 mM Hepes, 5 mM KH2PO4, 1 mM MgCl2, 1 mM CaCl2, 136 mM NaCl, 4.7 mM KCl, pH 7.4) containing 0.1% BSA and then incubated with the compounds or vehicle control and 1 mM 2DG for 30 min as described earlier. After washing three times with KRB buffer, the plates were sealed with adhesive aluminum foil and cells were lysed with 60 µL 1% CHAPS in 0.06 M HCl. Subsequently, plates were heated using microplate heater for 15 min at 65°C. After cooling down to room temperature, 20 µL 0.5 M Tris were added to neutralize the acid, before 80 µL of detection enzyme mixture were added. The detection enzyme solution contained 25 µM resazurin sodium salt (Acros), 6 U/mL glucose-6-phosphate dehydrogenase (G8404; Sigma Aldrich), 0.2 U/mL diaphorase from Chlostridium kluyveri (D5540; Sigma Aldrich) and 0.1mM NADP+ (Applichem) in 0.125 mM Tris, pH 8.4 with 0.1% BSA. After incubation for 2 h at room temperature, fluorescence intensity was measured at ex/em 530/590 nm using a Tecan M200 plate reader. Data were normalized to the respective DMSO

T1 sequence (P11169 whole entry): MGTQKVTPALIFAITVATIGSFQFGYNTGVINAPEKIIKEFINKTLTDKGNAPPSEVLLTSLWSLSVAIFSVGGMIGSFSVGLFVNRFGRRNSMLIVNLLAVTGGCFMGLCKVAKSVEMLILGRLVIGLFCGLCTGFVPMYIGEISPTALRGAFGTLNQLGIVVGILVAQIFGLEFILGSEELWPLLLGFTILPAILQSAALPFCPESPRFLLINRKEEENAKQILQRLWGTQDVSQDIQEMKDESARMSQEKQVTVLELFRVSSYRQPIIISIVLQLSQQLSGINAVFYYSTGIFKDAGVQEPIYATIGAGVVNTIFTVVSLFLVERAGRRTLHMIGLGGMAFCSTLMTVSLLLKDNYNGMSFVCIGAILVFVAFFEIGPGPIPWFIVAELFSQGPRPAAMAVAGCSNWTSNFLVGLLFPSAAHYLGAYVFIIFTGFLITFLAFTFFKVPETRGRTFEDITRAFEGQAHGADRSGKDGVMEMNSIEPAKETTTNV

IC50 (GLUT-3): 11.4 ± 1.6 nM
IC50 (A431): 0.23 µM
IC50 (HT1080): 0.118 µM
IC50 (LOVO): 5.41 µM
IC50 (SW620): > 30 µM
SMILES: CCOC(=O)Cn1c2c(c3ccccc31)C[C@@H]1C[C@H]2C(OC)CN1C(=O)c1cccnc1SC (single isomer, unassigned; (+)) [(+)-5a, Glupin]
IC50 (HS729): > 30 µM
IC50 (CHO [1]; pCMV-SPORT6, 2DG uptake): 19.1 ± 2.9 nM
IC50 (CHO [1]; pTCN, 2DG uptake): 19.2 ± 2.1 nM
IC50 (CHO [2]; pCMV-SPORT6-GLUT3): 68 ± 7.2 nM
IC50 (CHO [2]; pTCN-GLUT1): 162 ± 14 nM
IC50 (CHO [2]; pTCN-GLUT2): 19.7 ± 2.4 nM
IC50 (CHO [2]; pTCN-GLUT4): 18.9 ± 3.2 nM
